Experimental data from ChEMBL document CHEMBL1221226 (Nat Chem Biol, 2009).

Experiments:
[1] = biological target: Glucagon-like peptide 1 receptor (Homo sapiens, UniProt P43220); test: Agonist activity at GLP1R expressed in HEK293 cells assessed as stimulation of cAMP production by luciferase reporter gene assay; type: functional, cell-based
Glucagon receptor = Glucagon receptor (Homo sapiens, UniProt P47871); test: Agonist activity at GCGR expressed in HEK293 cells assessed as stimulation of cAMP production by luciferase reporter gene assay; type: functional, cell-based
Glucagon receptor, sequence (P47871 whole entry): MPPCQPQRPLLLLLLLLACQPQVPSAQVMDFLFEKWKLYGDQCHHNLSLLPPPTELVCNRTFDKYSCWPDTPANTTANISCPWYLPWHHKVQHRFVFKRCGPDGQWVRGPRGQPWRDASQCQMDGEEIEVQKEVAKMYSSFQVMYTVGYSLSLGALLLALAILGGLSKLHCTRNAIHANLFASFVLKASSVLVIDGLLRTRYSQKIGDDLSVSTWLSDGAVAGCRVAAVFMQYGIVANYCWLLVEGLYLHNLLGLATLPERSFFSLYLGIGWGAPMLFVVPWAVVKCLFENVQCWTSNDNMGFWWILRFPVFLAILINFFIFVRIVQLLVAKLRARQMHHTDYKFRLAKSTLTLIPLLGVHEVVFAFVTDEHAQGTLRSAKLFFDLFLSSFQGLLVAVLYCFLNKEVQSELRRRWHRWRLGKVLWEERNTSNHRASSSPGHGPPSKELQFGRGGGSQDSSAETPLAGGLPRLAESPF

Glucagon-like peptide 1 receptor, sequence (P43220 whole entry): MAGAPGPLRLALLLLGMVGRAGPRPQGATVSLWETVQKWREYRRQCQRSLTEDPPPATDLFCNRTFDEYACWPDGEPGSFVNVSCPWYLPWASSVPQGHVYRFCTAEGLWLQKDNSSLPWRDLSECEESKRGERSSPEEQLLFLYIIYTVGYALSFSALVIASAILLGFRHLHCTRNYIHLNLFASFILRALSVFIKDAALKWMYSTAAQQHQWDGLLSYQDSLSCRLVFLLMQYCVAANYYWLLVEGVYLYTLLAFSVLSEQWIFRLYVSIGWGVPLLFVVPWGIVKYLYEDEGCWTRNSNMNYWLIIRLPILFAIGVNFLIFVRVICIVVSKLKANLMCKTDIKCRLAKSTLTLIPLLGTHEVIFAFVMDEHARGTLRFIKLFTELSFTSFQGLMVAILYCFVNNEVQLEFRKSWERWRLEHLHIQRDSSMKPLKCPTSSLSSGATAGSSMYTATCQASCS

Compound | EC50 [1] [nM] | EC50 (Glucagon receptor) [nM]
CSCC[C@H](NC(=O)[C@H](CC(C)C)NC(=O)[C@H](Cc1c[nH]c2ccccc12)NC(=O)[C@H](CCC(N)=O)NC(=O)[C@@H](NC(=O)[C@H](Cc1ccccc1)NC(=O)[C@H](CC(=O)O)NC(=O)[C@H](CCC(N)=O)NC(=O)[C@H](C)NC(=O)[C@H](CCCNC(=N)N)NC(=O)[C@H](CCCNC(=N)N)NC(=O)[C@H](CO)NC(=O)[C@H](CC(=O)O)NC(=O)[C@H](CC(C)C)NC(=O)[C@H](Cc1ccc(O)cc1)NC(=O)[C@H](CCCCN)NC(=O)[C@H](CO)NC(=O)[C@H](Cc1ccc(O)cc1)NC(=O)[C@H](CC(=O)O)NC(=O)[C@H](CO)NC(=O)[C@@H](NC(=O)[C@H](Cc1ccccc1)NC(=O)[C@@H](NC(=O)CNC(=O)[C@H](CCC(N)=O)NC(=O)[C@H](CO)N[C@@H](Cc1cnc[nH]1)C(=O)O)[C@@H](C)O)[C@@H](C)O)C(C)C)C(=O)N[C@@H](CC(N)=O)C(=O)N[C@H](C(N)=O)[C@@H](C)O | 0.6 | 0.15
CSCC[C@H](NC(=O)[C@H](CC(C)C)NC(=O)[C@H](Cc1c[nH]c2ccccc12)NC(=O)[C@H](CCC(N)=O)NC(=O)[C@@H](NC(=O)[C@H](Cc1ccccc1)NC(=O)[C@H](CC(=O)O)NC(=O)[C@H](CCC(N)=O)NC(=O)[C@H](C)NC(=O)[C@H](CCCN=C(N)N)NC(=O)[C@H](CCCN=C(N)N)NC(=O)[C@H](CCC(=O)O)NC(=O)[C@H](CC(=O)O)NC(=O)[C@H](CC(C)C)NC(=O)[C@H](Cc1ccc(O)cc1)NC(=O)[C@H](CCCCN)NC(=O)[C@H](CO)NC(=O)[C@H](Cc1ccc(O)cc1)NC(=O)[C@H](CC(=O)O)NC(=O)[C@H](CO)NC(=O)[C@@H](NC(=O)[C@H](Cc1ccccc1)NC(=O)[C@@H](NC(=O)CNC(=O)[C@H](CCC(N)=O)NC(=O)[C@H](CO)N[C@@H](Cc1cnc[nH]1)C(=O)O)[C@@H](C)O)[C@@H](C)O)C(C)C)C(=O)N[C@@H](CC(N)=O)C(=O)N[C@H](C(=O)O)[C@@H](C)O | 1.1 | 0.053
CSCC[C@H](NC(=O)[C@H](CC(C)C)NC(=O)[C@H](Cc1c[nH]c2ccccc12)NC(=O)[C@H](CCC(N)=O)NC(=O)[C@@H](NC(=O)[C@H](Cc1ccccc1)NC(=O)[C@H](CC(=O)O)NC(=O)[C@H](CCC(N)=O)NC(=O)[C@H](C)NC(=O)[C@H](CCCNC(=N)N)NC(=O)[C@H](CCCNC(=N)N)NC(=O)C[C@H](CCC(=O)O)NC(=O)[C@H](CC(=O)O)NC(=O)[C@H](CC(C)C)NC(=O)[C@H](Cc1ccc(O)cc1)NC(=O)[C@H](CCCCN)NC(=O)[C@H](CO)NC(=O)[C@H](Cc1ccc(O)cc1)NC(=O)[C@H](CC(=O)O)NC(=O)[C@H](CO)NC(=O)[C@@H](NC(=O)[C@H](Cc1ccccc1)NC(=O)[C@@H](NC(=O)CNC(=O)[C@H](CCC(N)=O)NC(=O)[C@H](CO)N[C@@H](Cc1cnc[nH]1)C(=O)O)[C@@H](C)O)[C@@H](C)O)C(C)C)C(=O)N[C@@H](CC(N)=O)C(=O)N[C@H](C(N)=O)[C@@H](C)O | 0.13 | 0.054
CSCC[C@H](NC(=O)[C@H](CC(C)C)NC(=O)[C@H](Cc1c[nH]c2ccccc12)NC(=O)[C@H](CCC(N)=O)NC(=O)[C@@H](NC(=O)[C@H](Cc1ccccc1)NC(=O)[C@H](CC(=O)O)NC(=O)[C@H](CCC(N)=O)NC(=O)[C@H](C)NC(=O)[C@H](CCCN=C(N)N)NC(=O)[C@H](CCCN=C(N)N)NC(=O)CNC(=O)[C@H](CC(=O)O)NC(=O)[C@H](CC(C)C)NC(=O)[C@H](Cc1ccc(O)cc1)NC(=O)[C@H](CCCCN)NC(=O)[C@H](CO)NC(=O)[C@H](Cc1ccc(O)cc1)NC(=O)[C@H](CC(=O)O)NC(=O)[C@H](CO)NC(=O)[C@@H](NC(=O)[C@H](Cc1ccccc1)NC(=O)[C@@H](NC(=O)CNC(=O)[C@H](CCC(N)=O)NC(=O)[C@H](CO)N[C@@H](Cc1cnc[nH]1)C(=O)O)[C@@H](C)O)[C@@H](C)O)C(C)C)C(=O)N[C@@H](CC(N)=O)C(=O)N[C@H](C(N)=O)[C@@H](C)O | 0.58 | 0.13
CSCC[C@H](NC(=O)[C@H](CC(C)C)NC(=O)[C@H](Cc1c[nH]c2ccccc12)NC(=O)[C@H](CCC(N)=O)NC(=O)[C@@H](NC(=O)[C@H](Cc1ccccc1)NC(=O)[C@H](CC(=O)O)NC(=O)[C@H](CCC(N)=O)NC(=O)[C@H](C)NC(=O)[C@H](CCCNC(=N)N)NC(=O)[C@H](CCCNC(=N)N)NC(=O)[C@@H](NC(=O)[C@H](CC(=O)O)NC(=O)[C@H](CC(C)C)NC(=O)[C@H](Cc1ccc(O)cc1)NC(=O)[C@H](CCCCN)NC(=O)[C@H](CO)NC(=O)[C@H](Cc1ccc(O)cc1)NC(=O)[C@H](CC(=O)O)NC(=O)[C@H](CO)NC(=O)[C@@H](NC(=O)[C@H](Cc1ccccc1)NC(=O)[C@@H](NC(=O)CNC(=O)[C@H](CCC(N)=O)NC(=O)[C@H](CO)N[C@@H](Cc1cnc[nH]1)C(=O)O)[C@@H](C)O)[C@@H](C)O)[C@@H](C)O)C(C)C)C(=O)N[C@@H](CC(N)=O)C(=O)N[C@H](C(N)=O)[C@@H](C)O | 0.58 | 0.13

Continued by falling EC50 [1], values first:

EC50 [1] [nM] | EC50 (Glucagon receptor) [nM] | Compound
0.57 | 0.068 | CSCC[C@H](NC(=O)[C@H](CC(C)C)NC(=O)[C@H](Cc1c[nH]c2ccccc12)NC(=O)[C@H](CCC(N)=O)NC(=O)[C@@H](NC(=O)[C@H](Cc1ccccc1)NC(=O)[C@H](CC(=O)O)NC(=O)[C@H](CCC(N)=O)NC(=O)[C@H](C)NC(=O)[C@H](CCCNC(=N)N)NC(=O)[C@H](CCCNC(=N)N)NC(=O)[C@H](CC(=O)O)NC(=O)[C@H](CC(=O)O)NC(=O)[C@H](CC(C)C)NC(=O)[C@H](Cc1ccc(O)cc1)NC(=O)[C@H](CCCCN)NC(=O)[C@H](CO)NC(=O)[C@H](Cc1ccc(O)cc1)NC(=O)[C@H](CC(=O)O)NC(=O)[C@H](CO)NC(=O)[C@@H](NC(=O)[C@H](Cc1ccccc1)NC(=O)[C@@H](NC(=O)CNC(=O)[C@H](CCC(N)=O)NC(=O)[C@H](CO)N[C@@H](Cc1cnc[nH]1)C(=O)O)[C@@H](C)O)[C@@H](C)O)C(C)C)C(=O)N[C@@H](CC(N)=O)C(=O)N[C@H](C(N)=O)[C@@H](C)O
0.26 | – | CSCC[C@H](NC(=O)[C@H](CC(C)C)NC(=O)[C@H](Cc1c[nH]c2ccccc12)NC(=O)[C@H](CCC(N)=O)NC(=O)[C@@H](NC(=O)[C@H](Cc1ccccc1)NC(=O)[C@H](CC(=O)O)NC(=O)[C@H](CCC(N)=O)NC(=O)[C@H](C)NC(=O)[C@H](CCCN=C(N)N)NC(=O)[C@H](CCCN=C(N)N)NC(=O)[C@H](CCC(N)=O)NC(=O)[C@H](CC(=O)O)NC(=O)[C@H](CC(C)C)NC(=O)[C@H](Cc1ccc(O)cc1)NC(=O)[C@H](CCCCN)NC(=O)[C@H](CO)NC(=O)[C@H](Cc1ccc(O)cc1)NC(=O)[C@H](CC(=O)O)NC(=O)[C@H](CO)NC(=O)[C@@H](NC(=O)[C@H](Cc1ccccc1)NC(=O)[C@@H](NC(=O)CNC(=O)[C@H](CCC(N)=O)NC(=O)[C@H](CO)N[C@@H](Cc1cnc[nH]1)C(=O)O)[C@@H](C)O)[C@@H](C)O)C(C)C)C(=O)N[C@@H](CC(N)=O)C(=O)N[C@H](C(N)=O)[C@@H](C)O
0.23 | 0.1 | CSCC[C@H](NC(=O)[C@H](CC(C)C)NC(=O)[C@H](Cc1c[nH]c2ccccc12)NC(=O)[C@H](CCC(N)=O)NC(=O)[C@@H](NC(=O)[C@H](Cc1ccccc1)NC(=O)[C@H](CC(=O)O)NC(=O)[C@H](CCC(N)=O)NC(=O)[C@H](C)NC(=O)[C@H](CCCNC(=N)N)NC(=O)[C@H](CCCNC(=N)N)NC(=O)[C@H](Cc1c[nH]cn1)NC(=O)[C@H](CC(=O)O)NC(=O)[C@H](CC(C)C)NC(=O)[C@H](Cc1ccc(O)cc1)NC(=O)[C@H](CCCCN)NC(=O)[C@H](CO)NC(=O)[C@H](Cc1ccc(O)cc1)NC(=O)[C@H](CC(=O)O)NC(=O)[C@H](CO)NC(=O)[C@@H](NC(=O)[C@H](Cc1ccccc1)NC(=O)[C@@H](NC(=O)CNC(=O)[C@H](CCC(N)=O)NC(=O)[C@H](CO)N[C@@H](Cc1cnc[nH]1)C(=O)O)[C@@H](C)O)[C@@H](C)O)C(C)C)C(=O)N[C@@H](CC(N)=O)C(=O)N[C@H](C(N)=O)[C@@H](C)O
0.17 | 0.049 | CSCC[C@H](NC(=O)[C@H](CC(C)C)NC(=O)[C@H](Cc1c[nH]c2ccccc12)NC(=O)[C@H](CCC(N)=O)NC(=O)[C@@H](NC(=O)[C@H](Cc1ccccc1)NC(=O)[C@H](CC(=O)O)NC(=O)[C@H](CCC(N)=O)NC(=O)[C@H](C)NC(=O)[C@H](CCCN=C(N)N)NC(=O)[C@H](CCCN=C(N)N)NC(=O)[C@H](CCC(=O)O)NC(=O)[C@H](CC(=O)O)NC(=O)[C@H](CC(C)C)NC(=O)[C@H](Cc1ccc(O)cc1)NC(=O)[C@H](CCCCN)NC(=O)[C@H](CO)NC(=O)[C@H](Cc1ccc(O)cc1)NC(=O)[C@H](CC(=O)O)NC(=O)[C@H](CO)NC(=O)[C@@H](NC(=O)[C@H](Cc1ccccc1)NC(=O)[C@@H](NC(=O)CNC(=O)[C@H](CCC(N)=O)NC(=O)[C@H](CO)N[C@@H](Cc1cnc[nH]1)C(=O)O)[C@@H](C)O)[C@@H](C)O)C(C)C)C(=O)N[C@@H](CC(N)=O)C(=O)N[C@H](C(N)=O)[C@@H](C)O
0.12 | 0.1 | CSCC[C@H](NC(=O)[C@H](CC(C)C)NC(=O)[C@H](Cc1c[nH]c2ccccc12)NC(=O)[C@H](CCC(N)=O)NC(=O)[C@@H](NC(=O)[C@H](Cc1ccccc1)NC(=O)[C@H](CC(=O)O)NC(=O)[C@H](CCC(N)=O)NC(=O)[C@H](C)NC(=O)[C@H](CCCNC(=N)N)NC(=O)[C@H](CCCNC(=N)N)NC(=O)[C@H](CCS(=O)(=O)O)NC(=O)[C@H](CC(=O)O)NC(=O)[C@H](CC(C)C)NC(=O)[C@H](Cc1ccc(O)cc1)NC(=O)[C@H](CCCCN)NC(=O)[C@H](CO)NC(=O)[C@H](Cc1ccc(O)cc1)NC(=O)[C@H](CC(=O)O)NC(=O)[C@H](CO)NC(=O)[C@@H](NC(=O)[C@H](Cc1ccccc1)NC(=O)[C@@H](NC(=O)CNC(=O)[C@H](CCC(N)=O)NC(=O)[C@H](CO)N[C@@H](Cc1cnc[nH]1)C(=O)O)[C@@H](C)O)[C@@H](C)O)C(C)C)C(=O)N[C@@H](CC(N)=O)C(=O)N[C@H](C(N)=O)[C@@H](C)O
